According to patent US20240300934A1, “COMPOUNDS FOR MODULATING MYCOBACTERIUM TUBERCULOSIS RESPONSE” (priority 2021, published 2024):
Values after ≈ are worked out from the molar mass of the structure shown. Like-named read-outs stand apart in the source and are kept apart here.

What was measured:
[1] = system: rv2390c′::GFP reporter Mtb strain; format: cell-based, Mycobacterium tuberculosis; details: for rv2390c′::GFP Cl− response phenotype: compared to C6; for rv2390c′::GFP reporter signal upon Mtb exposure to high [Cl−] (in words): 10 μM, 250 mM NaCl
Mtb in J774 cells = experiment: Mtb growth in J774 macrophage-like cells (mKO fluorescence); format: cell-based, Mycobacterium tuberculosis; details: for % Reduction of Intracellular Infection (J774.1 cells) at 10 μM cmpd: 10 μM compound; for Mtb growth in J774 cells (in words): 10 μM, 6 days post-infection; for Inhibition of Mtb growth in J774 cells phenotype: compared to C6
Protocol: For the tertiary screen of selected hit compounds in J774 murine macrophage-like cells, 30,000 J774 cells/well were seeded in bar-coded 384-well black, clear bottom plates in a 30 μl volume in J774 infection media (DMEM+10% FBS+1 mM sodium pyruvate+2 mM L-glutamine) using a ThermoFisher Multidrop Combi reagent dispenser, one day prior to assay start. On the day of the assay, log-phase Mtb constitutively expressing mKO were pelleted and resuspended in 1 ml basal uptake buffer (0.5% bovine serum albumin+25 mM dextrose+0.5 mM MgCl2+1 mM CaCl2+0.1% gelatin in phosphate buffered saline (PBS), passed 6× though a tuberculin syringe with a 25 G×5/8″ needle, then resuspended in J774 infection media to a final OD600=0.2. 10 μl of this bacterial suspension was added to each well of the 384-well plates containing the J774 cells, followed by addition of 10 μl of the appropriate compounds (pre-aliquoted in v-bottom plates in a 1:1 mix of PBS:J774 infection media). Addition of Mtb and compounds were conducted using a Janus Ministation. For each test plate, two columns of controls (16 wells each) were included, with one column consisting of treatment with DMSO as a carrier control (negative control), and the other column consisting of treatment with 5 μM rifampicin (positive control). This tertiary assay was done as a dose-response assay in duplicate runs, with compounds tested beginning at a final concentration of 20 μM and two-fold dilutions down to 0.039 μM. Plates were kept in humidified ziplock bags in a 37° C., 5% CO2 incubator. 6 days post-infection, mKO fluorescence signal was read using a PerkinElmer EnVision multimode plate reader (bottom read filter, excitation 530/8 nm, Bodipy TMR D555 single mirror, emission 579/25 nm). mKO fluorescence in DMSO-treated control samples were defined as 100% growth, and fluorescence observed in treatment conditions calculated as a percentage from that set value.
For J774 infection in 96-well plates, 180,000 J774 cells were seeded per well in 180 μl of J774 infection media one day prior to infection. On the day of the assay, log-phase Mtb constitutively expressing mKO were pelleted and resuspended in 1 ml basal uptake buffer, passed 6× though a tuberculin syringe with a 25 G×5/8″ needle, then resuspended in J774 infection media to a final OD600=0.2. Media was removed from 96-well plate containing the J774 cells, with 140 μl of fresh J774 infection media added back to each well. 40 μl of the Mtb suspension at OD600=0.2 was added to each well, followed by addition of appropriate concentration of compound or DMSO in a 20 μl final volume in J774 infection media (compound final concentration 10 μM, rifampicin final concentration 5 μM, DMSO final concentration 0.1%/well). Bacterial mKO fluorescence was read immediately after infection using a Biotek Synergy Neo2 microplate reader (bottom read monochromator, excitation 543/10 nm, emission 565/10 nm), and again 6 days post-infection. Plates were kept in humidified ziplock bags in a 37° C., 5% CO2 incubator. mKO fluorescence in DMSO-treated control samples were defined as 100% growth, and fluorescence observed in treatment conditions calculated as a percentage from that set value.

Mtb [2] = experiment: C3HeB/FeJ murine Mtb infection model; format: in vivo, C3HeB/FeJ mice; details: 150 mg/kg, 5 days/week oral gavage for 2 weeks, started 2 or 6 weeks post-infection
Protocol: C3HeB/FeJ wild type mice (Jackson Laboratories) were infected intranasally with 10^3 CFUs of Mtb (35 μl), under light anesthesia with 2% isoflurane (MacGilvary et al, 2019; Sukumar et al, 2014; Tan et al, 2013). […] The next day the suspension was homogenized by bead beating with 5 mm steel beads in a TOMY microtube mixer (2×20 s), and stored at 4° C. until use. […] Administration began at two or six weeks post-infection as indicated. At time of sacrifice, the left lobe and accessory right lobe of the lung were homogenized in PBS+0.05% Tween 80 and serial dilutions plated on 7H10 agar plates with 100 μg/ml cycloheximide for bacterial load determination. The remaining three right lobes were fixed in 4% PFA in PBS. One lobe was used for histological analysis by standard hematoxylin and eosin (H&E) staining (Tufts Comparative Pathology Services). A Nikon Eclipse E400 with a SPOT insight color digital camera was used to image the histology samples.

[3] = Mouse liver microsomal stability; format: in vitro ADME; details: mouse liver microsomes; for half-life: read-out: MLM t1/2
Protocol: (§1) Assays examining mouse and human liver microsomal stability, kinetic aqueous solubility, mouse and human plasma protein binding and stability, and human cytochrome P450 inhibition characteristics of the compounds were run by BioDuro, Incorporated, using standard protocols as previously described (Wang et al, 2020). hERG inhibition assays were also performed by BioDuro, Incorporated.

[4] = Mouse pharmacokinetics, single oral dose; format: in vivo, CD-1 mice; details: for Kp at 5 h / AUC(0-t): female, single 25 mg/kg po dose; for Kp at 5 h: CD-1, mouse, lung vs plasma, read-out: Mouse PK Clung/Cplasma at t = 5 h; for AUC(0-t): mouse, CD-1 mice, read-out: Mouse PK AUC0-5h
Protocol: Blood samples were collected in K2EDTA coated tubes pre-dose, 0.5, 1, 3 and 5 hrs post-dose, placed on ice, and centrifuged to recover plasma. The recovered plasma was kept at −80° C. as needed prior to analysis, which was performed as previously described (Wang et al, 2020). In brief, a Sciex Applied Biosystems Qtrap 4000 triple-quadrupole mass spectrometer coupled to an Agilent 1260 HPLC system was used for HPLC coupled to tandem mass spectrometry (LC-MS/MS) quantitative analysis of the samples, with chromatography attained using an Agilent Zorbax SB-C8 column (2.1×30 mm; particle size, 3.5 μm) and a reverse phase gradient elution. The aqueous mobile phase consisted of Milli-Q deionized water with 0.1% formic acid (A), while the organic mobile phase was 0.1% formic acid in acetonitrile (B). The gradient set-up was as follows: 5-90% B over 2 mins, 1 min at 90% B, then an immediate drop to 5% B and an additional 1 min at 5% B. Quantification of molecules was carried out via multiple-reaction monitoring of parent/daughter transitions in electrospray positive-ionization mode, and sample analyses accepted if quality control and standard samples had concentrations within 20% of the nominal concentration. Preparation of compounds for generation of standard curves and quality control spiking solutions were performed as previously described (Wang et al, 2020). Data were processed using Analyst software (Version 1.6.2; Applied Biosystems Sciex).

[5] = system: Mtb in bone marrow-derived macrophages (BMDMs); experiment: Mtb growth in primary murine bone marrow-derived macrophages (CFU); format: cell-based, Mycobacterium tuberculosis; details: 10 μM; added 2 hrs post-infection; eight-day time-course
Protocol: C57BL/6J wild type mice (Jackson Laboratories) were used for extraction of bone marrow-derived macrophages. Cells were harvested and expanded in DMEM containing 10% FBS, 15% L-cell conditioned media, 2 mM L-glutamine, 1 mM sodium pyruvate, and penicillin/streptomycin as needed in a 37° C. incubator in a 5% CO2 atmosphere. […] Macrophages were lysed with water containing 0.01% sodium dodecyl sulfate and a dilution series of the samples plated on 7H10 agar for CFU determination.

[6] = Kinetic aqueous solubility in pH 7.4 PBS; format: physicochemical; details: read-out: Kinetic Aqueous Solubility S
Protocol: as §1

Mtb [7] = experiment: Mtb growth assay in cholesterol media (OD600); format: cell-based, Mycobacterium tuberculosis; details: for Growth inhibition in cholesterol media phenotype: compared to C6
[8] = system: murine bone marrow derived macrophages phagosome; experiment: Phagosomal maturation assays with sensor beads; format: cell-based, mouse; details: 10 μM
Protocol: Carboxyfluorescein (pH readout), DQ-BSA/Alexa Fluor 594 (AF594) (proteolysis readout), and 10,10′-Bis[3-carboxylpropyl]-9,9′-biacridinium (BAC)/AF594 (Cl^− readout) beads were generated as previously described (Podinovskaia et al, 2013; Tan et al, 2013; Tan et al, 2017; Yates et al, 2008). Bone marrow-derived macrophages were isolated from C57BL/6J mice (Jackson Laboratories) and maintained as described above. 2×10^5 macrophages/well were seeded into 96-well clear bottom black plates, and utilized in assays one-two days post-seeding. […] Assay buffer consisted of PBS, pH 7.2, supplemented with 5% FBS, 5 mM dextrose, 1 mM CaCl2, 2.7 mM KCl, and 0.5 mM MgCl2 in the case of assays with the carboxyfluorescein or DQ-BSA/AF594 beads (Buter et al, 2019; Dutta et al, 2020). For assays with the BAC/AF594 beads, assay buffer consisted of PBS, pH 7.2, supplemented with 5% FBS, 5 mM dextrose, 1 mM calcium acetate, 1.35 mM K2SO4, and 0.5 mM MgSO4 (Tan et al, 2013). Sensor beads at ˜2-5 beads/macrophage in appropriate assay buffer were finally added, with data acquisition on a Biotek Synergy H1 microplate reader with bottom read signal detection started within 2-3 minutes of bead addition. Excitation/emission wavelengths were 450 nm/520 nm and 490 nm/520 nm for carboxyfluorescein, 490 nm/520 nm for DQ-BSA, 365 nm/505 nm for BAC, and 590 nm/617 nm for AF594. Each experiment was run with a total of 3-5 replicate wells/condition, with temperature maintained at 37° C. throughout the assay. Wells were read every 2 minutes for 2 hours for the carboxyfluorescein bead assays, every 2 minutes for 4 hours for the DQ-BSA/AF594 bead assays, and every 1 minute for 2 hours for the BAC/AF594 bead assays. Analyses of the results were performed as previously described (Buter et al, 2019; Dutta et al, 2020; Podinovskaia et al, 2013; Tan et al, 2013).

J774 cells = experiment: Intracellular drug accumulation assay in J774 cells; details: 24 h exposure; uninfected J774 cells

| Structure (SMILES) | rv2390c′::GFP Cl− response phenotype [1] | % Reduction of Intracellular Infection (J774.1 cells) at 10 μM cmpd (Mtb in J774 cells) [%] | half-life [3] [min] | Kp at 5 h [4] | AUC(0-t) ([4]; plasma) [ng·h/mL] | Mtb bacterial load / growth in primary murine BMDM (in words) [5] | rv2390c′::GFP reporter signal upon Mtb exposure to high [Cl−] (in words) [1] | Mtb growth in J774 cells (in words) (Mtb in J774 cells) | Growth inhibition in cholesterol media phenotype (Mtb [7]) | Inhibition of Mtb growth in J774 cells phenotype (Mtb in J774 cells) | further results |
| --- | --- | --- | --- | --- | --- | --- | --- | --- | --- | --- | --- |
| CCSc1ncc(CN2CCN(c3nc4ccc(C#N)cc4o3)CC2)cn1 [JSF-4538, 2-(4-((2-(ethylthio)pyrimidin-5-yl)methyl)piperazin-1-yl)benzo[d]oxazole-6-carbonitrile] | Y | 36.4 ± 2.6 | 25.5 | 0.3 | 98700 | – | – | – | – | – | Mtb growth in vivo (lung CFUs) (Mtb [2]): inhibits Mtb growth in vivo |
| O=C(c1cnc2ccccn12)N1CCCC(CCc2cccc(C(F)(F)F)c2)C1 (centres unmarked) [Compound C5, Imidazo[1,2-a]pyridin-3-yl(3-(3-(trifluoromethyl)phenethyl)piperidin-1-yl)methanone] | – | – | – | – | – | significant decrease in bacterial load | increased rv2390c′::GFP reporter signal | Mtb growth inhibition | – | – | rv2390c′::GFP response phenotype ([1]; screen hits, high chloride (250 mM NaCl, pH 6.4)): Increases induction in high; inhibition at 10 µM (Mtb in J774 cells; Mycobacterium tuberculosis, J774CELLS, J774, 144 h, read-out: % inhibition compared to Rif in J774 at 10 μM): 50.9 ± 3.2%; inhibition at 20 µM (Mtb in J774 cells; Mycobacterium tuberculosis, J774CELLS, J774, 144 h, read-out: % inhibition compared to Rif in J774 at 20 μM): 55%; MLM t1/2 [3]: 4.98 min; AUC0-5 h ([4]; single 5 mg/kg oral (po) dose, plasma, CD-1 mice (n=2)): 42 ng·h/mL; solubility kinetic ([6]; pH 7.4 phosphate buffered saline (PBS)): 6.67 µM (≈ 2.68 µg/mL) |
| CCSc1ncc(CN2CCN(c3nc4ccccc4[nH]3)CC2)cn1 [JSF-4299, 2-(4-((2-(ethylthio)pyrimidin-5-yl)methyl)piperazin-1-yl)-1H-benzo[d]imidazole] | Y | – | – | – | – | – | – | – | Y | Y | macrophage phagosomal proteolytic activity ([8]; DQ-BSA/AF594 beads): decrease in the extent of proteolysis; macrophage phagosomal acidification ([8]; carboxyfluorescein beads): delay in acidification |
| c1ccc2oc(N3CCN(Cc4cncnc4)CC3)nc2c1 [JSF-4297, 2-(4-(pyrimidin-5-ylmethyl)piperazin-1-yl)benzo[d]oxazole] | N | – | – | – | – | loss of the ability to inhibit Mtb growth | lost the ability | loss of the ability to inhibit Mtb growth | N | N | Mtb growth in cholesterol media (in words) (Mtb [7]; 10 μM, OD600): no longer inhibited Mtb growth in cholesterol media; intracellular accumulation in J774 cells (J774 cells): no detectable accumulation |
| CCSc1ncc(CN2CCN(c3nc4ccc(C)cc4o3)CC2)cn1 [JSF-4527, 2-(4-((2-(ethylthio)pyrimidin-5-yl)methyl)piperazin-1-yl)-6-methylbenzo[d]oxazole] | Y | 53.8 ± 2.1 | 38.7 | 0.55 | 16300 | – | – | – | – | Y | solubility kinetic ([6]; PBS, pH 7.4, aqueous buffer, kinetic from dmso stock, Table 2): 13.7 µM (≈ 5.06 µg/mL) |
